Experiments:
Calu-3 cells = assay: Cell viability assay CellTiter-Glo, Calu-3 cells (Example 7); conditions: Calu-3 cells, CellTiter-Glo
[1] = system: SARS-CoV-2 isolate USA-WA1/2020; assay: SARS-CoV-2 infection in Caco-2 cells, qRT-PCR (Example 7); type: cell-based
SRV A2 strain of RSV = assay: RSV infection in Hep-2 cells, CPE reduction; type: cell-based, respiratory syncytial virus; conditions: RSV A2 in Hep-2 cells, 72 to 96 hours
Procedure: Methods: The SRV A2 strain of RSV was obtained from the ATCC. Ten thousand Hep-2 cells were seeded into each well of a 96-well plate in EMEM with 10% fetal bovine serum and 1% penicillin and streptomycin. Each well was inoculated with 100 TCID50 of virus. Two hours later wells were washed once with medium and serial four-fold dilutions of candidate antiviral drugs were added.

SARS-CoV-2 = SARS-CoV-2 infection assay in TMPRSS2-Vero cells, nucleocapsid immunofluorescence (Example 6); type: cell-based; conditions: MOI 0.01, 32 hours
Huh7.5 cells = assay: Cell viability assay CellTiter-Glo, Huh7.5 cells (Example 7)
[2] = system: USA WA-01 strain of SARS CoV-2; assay: Anti-coronavirus activity in Vero E6 cells, qPCR of spike RNA (Example 2); type: cell-based
Procedure: (§1) Ten thousand Vero E6 cells were seeded in 100 microliters of culture medium in 96 well plates. The following day serial two-fold dilutions of antiviral compounds or the DMSO-containing vehicle were added to each well. The USA WA-01 strain of SARS CoV-2 was added to each well at a multiplicity of infection of 0.1 thirty minutes later. Cells were incubated for 48 hours, washed twice in PBS and lysed with TRIzol. RNA was extracted using Directzol micro RNA columns. RNA was made into cDNA and assayed for the SARS CoV-2 spike protein and for a housekeeping gene (RPLPO) RNA by qPCR. Data represents the average of duplicate wells. Cellular cytotoxicity was also measured in VERO E6 cells. […] Cytotoxicity (CC50) was assessed using a commercially available MTT assay.

[3] = Seven day oral pharmacokinetics in Syrian hamsters; type: in vivo
Procedure: ODBG-P-RVn in 0.1M sodium carbonate/bicarbonate buffer, pH 9.0, was administered to Syrian Hamsters by oral gavage every 12 hours for seven days. ODBG-P-RVn was present as the sodium salt.
FIG. 4A and FIG. 4B depict the seven day oral pharmacokinetics in Syrian hamsters. Syrian hamsters were given vehicle or ODBG-P-RVn by oral gavage every 12 hours for 7 days. Groups of 3 animals received vehicle or drug at doses of 16.9 and 13.2 mg/kg. Animals were weighed daily and monitored for clinical signs.
Analytical Methods: ODBG-P-RVn: Hamster plasma samples (10 μL) containing ODBG-P-RVn and K2EDTA as the anticoagulant were added to polypropylene tubes containing water (100 μL), internal standard solution (10 μL; 1,000 ng/mL of ODE-P-RVn in ACN:DMF (1:1, v/v)), and 10 μL of ACN:DMF (1:1, v/v). The solutions were mixed, then acidified with phosphoric acid, 85% w/v:water (1:19, v/v; 10 μL), mixed, then diluted with 200 μL of IPA, mixed, then diluted with 500 μL of water, and mixed. The samples were extracted with a Sep-Pak® tC18 96-well solid phase extraction plate (25 mg; Waters, Milford, MA). Extraction occurred under positive pressure conditions using nitrogen. Samples were washed serially with 1 mL of water:acetonitrile:formic acid (475:25:0.5, v/v/v) and 0.4 mL of water:acetonitrile:formic acid (350:150:0.5, v/v/v) before being serially eluted with 100 μL and 150 μL of water:{acetonitrile:isopropyl alcohol (1:1, v/v)}:formic acid:ammonium formate:citric acid solution, 2% w/v (15:85:0.1:0.1:0.1, v/v/v/w/v). The citric acid solution was prepared as water:citric acid monohydrate (20:0.4, v/w). After elution, 100 μL of water was added to each sample. The ODBG-P-RVn extracts were analyzed using an Agilent 1200 HPLC system (Agilent, Santa Clara, CA) coupled to an API5500 mass analyzer (SCIEX, Foster City, CA). Analytes were chromatographically separated using a Dacapo DX-C18 MF column (100×2 mm, 2.5 μm; ImtaktUSA, Portland, OR) using a mobile phase system consisting of Mobile Phase A (water:formic acid:[water:ammonium formate:citric acid (25:5:0.5, v/w/w)](1.000:1:1, v/v/v) and Mobile Phase B (acetonitrile:isopropyl alcohol:formic acid:[water:ammonium formate:citric acid (25:5:0.5, v/w/w)](800:200:1:1, v/v/v/v). The total analytical run time was 4.5 minutes. The mobile phase was nebulized using heated nitrogen in a Turbo-V source/interface set to electrospray positive ionization mode. The ionized compounds were detected using multiple reaction monitoring with transitions m/z 788.4>229 (V2043) and 668.4>467.2 (V2041). This method is applicable for measuring ODBG-P-RVn concentrations ranging from 6.25 to 3,000 ng/mL using 10.0 μL of plasma for extraction. The peak areas of ODBG-P-RVn and RVn were acquired using Analyst v. 1.6.2 (SCIEX, Framingham, MA). The calibration curve was obtained by fitting the peak area ratios of the analyte/I.S. and the standard concentrations to a linear equation with 1/x2 weighting, using Analyst. The equation of the calibration curve was then used to interpolate the concentrations of the analyte in the samples using their peak area ratios. The peak areas used for the calculations were not rounded.
The solutions were mixed and centrifuged at 16,000 g for five minutes. […] The GS-441524 extracts were analyzed using an Acquity UPLC system (Waters, Milford, MA) coupled to a G2-S QTof mass analyzer (Waters, Milford, MA). […]

[4] = system: SARS-CoV-2 isolate USA-WA1/2020; assay: SARS-CoV-2 infection in Vero E6 cells, qRT-PCR of Spike RNA (Example 3); type: cell-based
VERO E6 cells = assay: Cellular cytotoxicity in Vero E6 cells, MTT assay (Example 2); type: cell-based
Procedure: as §1

HCoV-229E = type: cell-based, human Coronavirus 229E
[5] = Caco-2 cells, MOI 0.01, 48 hours
[6] = Vero E6 cells, MOI 0.1, 48 hours
[7] = Vero E6 cells, MOI 0.01, 48 hours, mean±SD
[8] = based on the EC50 values, Vero E6

CCCCCCCCCCCCCCCCCCOC[C@H](COP(=O)(O)OC[C@H]1O[C@@](C#N)(c2ccc3c(N)ncnn23)[C@H](O)[C@@H]1O)OCc1ccccc1 [Compound 15d, 1-O-octadecyl-2-O-benzyl-sn-glyceryl-phospho-RVn]
CC50 (Calu-3 cells): 98200 nM | Selectivity ([1]; CC50/EC50, Caco-2 cells): 295 | EC50 [1, 5]: 300 nM | EC90 [1, 5]: 330 nM | EC50 (SRV A2 strain of RSV): 10 nM | EC90 (SRV A2 strain of RSV): 19 nM | EC50 (SARS-CoV-2): 205 nM | EC90 (SARS-CoV-2): 432 nM | CC50 (Huh7.5 cells): 62900 nM | Selectivity Index ([2]; CC50/EC50, Vero E6): >238 | EC50 [2, 6]: 210 nM | EC90 [2, 6]: 560 nM | ODBG-P-RVn plasma levels at 12 hours versus EC90 in all cell lines studied ([3]; day 1 and 7): above the EC90 | time in which plasma levels fell by 50% ([3]; hamster, in vivo, po): about 5 hours | tolerability, clinical signs ([3]; oral gavage every 12 hours for seven days): well tolerated | Selectivity ([4]; CC50/EC50, Vero E6): 240 | EC50 [4, 7]: 190 ± 23 nM | EC90 [4, 7]: 560 ± 0.2 nM | times more active than RDV [4, 8]: 24 | times more active than RVn [4, 8]: 8.9 | CC50 (VERO E6 cells): > 50000 nM | EC50 (HCoV-229E): 100 nM | EC90 (HCoV-229E): 280 ± 13 nM | CC50 (MRC-5 cells): 43100 ± 18900 nM
